Results published in patent US4077981A, “Certain 1-alkyl-2-dichlorophenyliminopyrrolidines” (Bayer Aktiengesellschaft, priority 1968, dated 1978).

Experiments:
Boophilus, Biarra strain [1] = experiment: In-vitro test for adulticidal effect on ticks (24 hours); set-up: species or system Boophilus microplus; settings: Table 4, after 24 hours, at the concentrations stated
Method: (§1) In addition, the adulticidal effectiveness of the preparation of the given active compound after 24 hours is determined by ascertaining the voluntary movement of limbs and bodies of the immersed adult ticks after stimulation with a fine needle compared with the voluntary movement of limbs and bodies of the untreated adult ticks. The effectiveness is stated in %, 100% meaning that no movements of any kind of the limbs and bodies were any longer detectable, and 0% signifying that the ticks moved limbs and bodies in normal manner.

[2] = system: Boophilus microplus, Biarra strain (resistant); experiment: In-vitro test for ovicidal effect on ticks (Biarra strain); settings: for Ovicidal effect: 50% inhibition with the stated concentration of active compound: Table 4, concentration giving 50% inhibition
Method: (§2) In-vitro Test for Ovicidal Effect on Ticks
The emulsion concentrate so obtained is diluted with water to the application concentration desired in each case.
After immersion of, in each case, 10 female specimens of the various strains of ticks, the individual ticks are transferred to plastic dishes, the bottom of each of which is covered with a disc of filter paper.

Boophilus, Biarra strain [3] = experiment: In-vitro test for ovicidal and adulticidal effect on ticks; set-up: species or system Boophilus microplus
Method: In-vitro test for ovicidal and adulticidal effect on ticks
The ovicidal effect is determined as stated in Example 1.
as §1
The results below were obtained in a similar manner to those in accordance with Example 4.

[4] = system: Boophilus microplus, Biarra strain; experiment: In-vivo test against ticks on cattle; set-up: species or system Boophilus microplus (on cattle); settings: 0.3%
Method: In-vivo test against ticks on cattle
3 parts of the particular active compound are mixed with 7 parts of a mixture of equal parts by weight of ethyleneglycol monomethyl ether and nonylphenyl polyglycol ether. The emulsion concentrate so obtained is diluted with water to the application concentration desired in each case.
Cattle which have been infected (12 times at intervals of 2 days) with resistant larvae of ticks of the species Boophilus microplus, Biarra strain, are sprayed on the 24th day after the first infection with the preparation of the given active compound so obtained.
The effect of the preparation of the given active compound is determined by ascertaining the number of adult female ticks which have reached development on the treated cattle and later lay viable eggs. This number is compared with the number of adult femal ticks which have reached development on untreated cattle.
As a measure of the intensity of the infestation before treatment, there is used the number of adult females which reach development in the case of the treated and untreated animals in the last three days before the time of treatment.

[5] = system: Boophilus microplus, Ridgeland strain (resistant); experiment: In-vitro test for ovicidal effect on ticks (Ridgeland strain); settings: Table 1b, * Ridgeland strain
Method: as §2
3 g of the particular active compound are mixed with 7 g of a mixture of equal parts by weight of ethyleneglycol monomethyl ether and nonylphenyl polyglycol ether. The emulsion concentrate so obtained is diluted with water to the application concentration desired in each case.
Adult, fully engorged female ticks of the species Boophilus microplus (resistant) are immersed for 1 minute in this preparation of the given active compound. After immersion of, in each case, 10 female specimens of the various strains of ticks, the individual ticks are transferred to plastic dishes, the bottom of each of which is covered with a disc of filter paper. As a control, similar ticks of a normally sensitive strain are treated in exactly the same manner.
After 35 days, the effectiveness of the preparation of the given active compound is determined by ascertaining the inhibition of the depositing of fertile eggs compared with the egg depositing of untreated control ticks. The effect is stated in %, 100% meaning that fertile eggs ceased to be deposited, and 0% signifying that the ticks have deposited eggs in normal manner like the untreated control ticks.

[6] = ovicidal only (marked not adulticidal)
[7] = Table 4, concentration giving 100% inhibition, ovicidal only (marked not adulticidal)
[8] = Table 5, concentration giving 50% inhibition
[9] = Table 5, concentration giving 100% inhibition
[10] = Table 4, concentration giving 50% inhibition
[11] = Table 4, concentration giving 100% inhibition

Compound: CCCN1CCCC1=Nc1ccc(F)cc1Cl
- Adulticidal effect (Boophilus, Biarra strain [1]): not adulticidal
- Ovicidal effect: 50% inhibition with the stated concentration of active compound [2, 6]: 0.03 % by weight
- Ovicidal effect: 100% inhibition with the stated concentration of active compound [2, 7]: 0.1 % by weight

Compound: C=CCN1CCCC1=Nc1cccc(Cl)c1Cl
- Adulticidal effect (Boophilus, Biarra strain [1]): not adulticidal
- Ovicidal effect: 50% inhibition with the stated concentration of active compound [2, 6]: 0.008 % by weight
- Ovicidal effect: 100% inhibition with the stated concentration of active compound [2, 7]: 0.01 % by weight

Compound: CC=CCN1CCCC1=Nc1ccc(Br)cc1CC
- Adulticidal effect (Boophilus, Biarra strain [1]): not adulticidal
- Ovicidal effect: 50% inhibition with the stated concentration of active compound [2, 6]: 0.05 % by weight
- Ovicidal effect: 100% inhibition with the stated concentration of active compound [2, 7]: 0.1 % by weight

Compound: C=CCN1CCCC1=Nc1ccc(Cl)cc1C
- Adulticidal effect (Boophilus, Biarra strain [1]): not adulticidal
- Ovicidal effect: 50% inhibition with the stated concentration of active compound [2, 6]: 0.02 % by weight
- Ovicidal effect: 100% inhibition with the stated concentration of active compound [2, 7]: 0.03 % by weight

Compound: C=C(C)CN1CCCC1=Nc1ccc(Cl)cc1C
- Adulticidal and ovicidal effect: 50% inhibition with the stated concentration of active compound (Boophilus, Biarra strain [3]; [8]): 0.02 % by weight
- Adulticidal and ovicidal effect: 100% inhibition with the stated concentration of active compound (Boophilus, Biarra strain [3]; [9]): 0.03 % by weight

Compound: C=CCN1CCCC1=Nc1cc(Cl)ccc1Cl
- Adulticidal effect (Boophilus, Biarra strain [1]): not adulticidal
- Ovicidal effect: 50% inhibition with the stated concentration of active compound [2, 6]: 0.03 % by weight
- Ovicidal effect: 100% inhibition with the stated concentration of active compound [2, 7]: 0.1 % by weight

Compound: CCCCN1CCCC1=Nc1ccc(Cl)c(Br)c1
- Adulticidal and ovicidal effect: 50% inhibition with the stated concentration of active compound (Boophilus, Biarra strain [3]; [10]): 0.03 % by weight
- Adulticidal and ovicidal effect: 100% inhibition with the stated concentration of active compound (Boophilus, Biarra strain [3]; [11]): 0.1 % by weight

Compound: C=CCCN1CCCC1=Nc1ccc(C)c(Cl)c1
- Adulticidal and ovicidal effect: 50% inhibition with the stated concentration of active compound (Boophilus, Biarra strain [3]; [8]): 0.02 % by weight
- Adulticidal and ovicidal effect: 100% inhibition with the stated concentration of active compound (Boophilus, Biarra strain [3]; [9]): 0.03 % by weight

Compound: C=CCN1CCCC1=Nc1ccc(C)c(Cl)c1
- Adulticidal and ovicidal effect: 50% inhibition with the stated concentration of active compound (Boophilus, Biarra strain [3]; [10]): 0.01 % by weight
- Adulticidal and ovicidal effect: 100% inhibition with the stated concentration of active compound (Boophilus, Biarra strain [3]; [11]): 0.03 % by weight

Compound: CC=CCN1CCCC1=Nc1ccc(Cl)c(C)c1
- Adulticidal and ovicidal effect: 50% inhibition with the stated concentration of active compound (Boophilus, Biarra strain [3]; [8]): 0.02 % by weight
- Adulticidal and ovicidal effect: 100% inhibition with the stated concentration of active compound (Boophilus, Biarra strain [3]; [9]): 0.03 % by weight

Compound: C=C(C)CN1CCCC1=Nc1cc(Cl)c(Cl)cc1Cl
- Adulticidal and ovicidal effect: 50% inhibition with the stated concentration of active compound (Boophilus, Biarra strain [3]; [8]): 0.1 % by weight
- Adulticidal and ovicidal effect: 100% inhibition with the stated concentration of active compound (Boophilus, Biarra strain [3]; [9]): 0.3 % by weight

Compound: C=C(C)CN1CCCC1=Nc1ccc(Cl)cc1Cl
- Adulticidal and ovicidal effect: 50% inhibition with the stated concentration of active compound (Boophilus, Biarra strain [3]; [8]): 0.01 % by weight
- Adulticidal and ovicidal effect: 100% inhibition with the stated concentration of active compound (Boophilus, Biarra strain [3]; [9]): 0.03 % by weight

Compound: CCCCN1CCCC1=Nc1ccc(Cl)c(Cl)c1 [Compound 71]
- Ovicidal effect: 100% inhibition with the stated concentration of active compound ([2]; Table 1b, concentration giving 100% inhibition): 0.03 % by weight
- Ovicidal effect: >50% inhibition with the stated concentration of active compound ([2]; Table 1b, concentration giving >50% inhibition): 0.01 % by weight
- Number of female adult ticks which reach development on the cattle ([4]; days after treatment +1+2+3): 3
- Number of female adult ticks which reach development on the cattle ([4]; days after treatment +4+5+6): 1
- Number of female adult ticks which reach development on the cattle ([4]; days after treatment +7+8+9): 0
- Number of female adult ticks which reach development on the cattle ([4]; days after treatment +10+11+12): 11
- Number of female adult ticks which reach development on the cattle ([4]; days after treatment +13+14+15): 1
- Number of female adult ticks which reach development on the cattle ([4]; days after treatment +16+17+18): 2
- Number of female adult ticks which reach development on the cattle ([4]; days after treatment +19+20+21): 0
- Number of female adult ticks which reach development on the cattle ([4]; days before treatment -2 -1 0 (baseline)): 231
- Total number of female adult ticks which reach development on the cattle ([4]; total 1-21 days): 18

Compound: C=CCN1CCCC1=Nc1ccc(Br)c(C)c1
- Adulticidal and ovicidal effect: 50% inhibition with the stated concentration of active compound (Boophilus, Biarra strain [3]; [8]): 0.03 % by weight
- Adulticidal and ovicidal effect: 100% inhibition with the stated concentration of active compound (Boophilus, Biarra strain [3]; [9]): 0.1 % by weight

Compound: Cc1cc(Cl)ccc1N=C1CCCN1C(C)C [Compound 241]
- Ovicidal effect: 100% inhibition with the stated concentration of active compound ([5]; concentration giving 100% inhibition): 1.0 % by weight
- Ovicidal effect: >50% inhibition with the stated concentration of active compound ([5]; concentration giving >50% inhibition): 0.3 % by weight

Compound: CCCN1CCCC1=Nc1ccc(F)c(Cl)c1
- Adulticidal and ovicidal effect: 50% inhibition with the stated concentration of active compound (Boophilus, Biarra strain [3]; [10]): 0.03 % by weight
- Adulticidal and ovicidal effect: 100% inhibition with the stated concentration of active compound (Boophilus, Biarra strain [3]; [11]): 0.1 % by weight
